Consider ten molecules from PubChem BioAssay (NCI).

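Exposure lasted 48 hours, with cells grown in 96-well plates and compounds tested at five concentrations. GI50 is the concentration that inhibits growth by half. The concentration for full growth arrest is given as TGI.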 A value given as a limit tells only on which side of the number the result lay.

What all share (assay): NCI tumour cell line growth inhibition, 48 h
The test system of assay [1] is SK-OV-3 ovarian.
The test system of assay [2] is CCRF-CEM leukemia.
Assay [3] relates to SK-MEL-28 melanoma.
Assay [4] deals with CAKI-1 renal.
Assay [5] concerns SF-268 CNS.
Assay [6] deals with UO-31 renal.
Assay [7] deals with TK-10 renal.
The subject of assay [8] is SF-539 CNS.
Assay [9] has as its system U251 CNS.
Assay [10] relates to OVCAR-3 ovarian.

For the molecule `C=CCC12CC(=O)CCC1c1ccc(OC)cc1C2=O` (stereo not drawn), the TGI in assay [1], in assay [2], in [3], in [4], in assay [5] and in assay [6] was above 100 µM in each case. Also, the TGI in assay [7], in [8], in assay [9] and in assay [10] was above 100 µM in each case.

Consider `Nc1nc(Cl)nc2c1ncn2C1OC(CO)C(O)C1F` (stereo not drawn), for which the GI50 in assay [1] was 0.355 µM; in assay [3] it was above 9.44 µM; in [4], 0.0351 µM; in assay [5], 0.223 µM; in assay [6], 0.228 µM; in [7], 0.55 µM. Besides, the GI50 in assay [8] is 2.07 µM; in assay [9], 0.213 µM; in [10], above 100 µM. Also, the TGI was above 100 µM in assay [1]; 0.424 µM in assay [2]; above 100 µM in [3]; 0.959 µM in assay [4]; 21.3 µM in assay [5]; above 26 µM in [6]. In addition, the TGI in [7] was above 83 µM; in assay [8], 7.48 µM; in assay [9], above 100 µM; in assay [10] it was above 100 µM.

For `CC(=O)OCC1OC(n2c(=O)[nH]c(=O)c3n[nH]nc32)C(OC(C)=O)C(OC(C)=O)C1OC(C)=O` (stereo not drawn), the TGI in [1], in assay [2], in [3], in assay [4], in assay [5] and in assay [6] was above 100 µM in each case. In addition, the TGI in assay [7] and in assay [9] was above 100 µM throughout.

`C=C(C(=O)OC)[C@@H]1CC2OC1C(=O)C(C)CCC/C(C)=C/CC[C@@]2(C)O` (stereo partly drawn): the GI50 in assay [1] was above 100 µM; in [2], 11 µM; in assay [3] it was 25.5 µM; in assay [4], 11.4 µM; in assay [5], 39.4 µM; in assay [6] it was 16.4 µM. For the same molecule, the GI50 in [7] was 20.8 µM; in [8], 18.4 µM; in assay [9], 36.7 µM; in assay [10] it was 15.9 µM. In addition, the TGI is above 100 µM in assay [1]; 36.1 µM in assay [2]; 77.3 µM in [3]; 27.6 µM in assay [4]; above 100 µM in [5]; 31.2 µM in [6]. In addition, the TGI is 71.1 µM in assay [7], 36.4 µM in [8], above 100 µM in [9] and 48.4 µM in assay [10].

For the molecule `Brc1cc(C2OCCCO2)ccc1OCc1ccccc1`, the TGI in [1], in assay [2], in assay [3], in assay [4], in assay [5] and in assay [6] was above 100 µM throughout. Further, the TGI in [7], in assay [8] and in [10] was above 100 µM throughout.

For `CN1CCN(C(=O)c2ccc(NC(=O)Nc3ccc(-c4nc(N5CCOCC5)c5cccn5n4)cc3)cc2)CC1`, the GI50 in assay [1] was 0.0223 µM; in [2], 0.0473 µM; in assay [3], 0.0465 µM; in assay [4] it was 0.542 µM; in assay [5], 0.0399 µM; in assay [6], 0.304 µM. In addition, the GI50 was 0.18 µM in [7], 0.0481 µM in assay [8] and 0.0464 µM in assay [9]. In addition, the TGI came out at 0.121 µM in assay [1]; 5.67 µM in assay [2]; 0.77 µM in assay [3]; 10.7 µM in assay [4]; 12 µM in [5]; 5.82 µM in [6]. In addition, the TGI in assay [7] was determined as 0.874 µM; in [8] it was 0.393 µM; in assay [9], 10.3 µM.

Take `O=c1cc[nH]cc1-c1c[nH]ccc1=O`: the TGI in [1], in [2], in assay [3], in assay [4], in [6] and in assay [7] was above 100 µM throughout. Besides, the TGI in assay [8], in assay [9] and in assay [10] was above 100 µM each time.

`COc1cc(Cl)c(CC(=O)c2c[nH]c3ccccc23)cc1OC`: the TGI in [1] is 40 µM; in assay [2], above 57.5 µM; in [3], above 100 µM; in assay [4], above 100 µM; in assay [5] it was above 100 µM; in assay [6] it was above 43.3 µM. For the same molecule, the TGI in [7] is above 74 µM; in assay [8] it was 19.4 µM; in assay [9], 44.4 µM; in assay [10] it was above 100 µM.

As to `N#CC1=C(N)NC(N2CCOCC2)=NC12Nc1ccccc1O2` (stereo not drawn), the GI50 in assay [1] was above 100 µM; in [2], 44 µM; in assay [3] it was above 100 µM; in [4] it was 25.3 µM; in assay [5], 33.8 µM; in assay [6], 31.9 µM. In addition, the GI50 is 34 µM in [7], 78.7 µM in assay [8], 45.8 µM in assay [9] and 25.1 µM in assay [10]. The TGI is above 100 µM in assay [1]; above 100 µM in [2]; above 100 µM in assay [3]; 86.7 µM in assay [4]; above 100 µM in assay [5]; above 100 µM in assay [6]. The TGI in [7] was above 100 µM; in assay [8], above 100 µM; in assay [9], above 100 µM; in assay [10] it was 84.8 µM.

Consider `CCCCCCCCCCCNC=O`, for which the TGI in assay [1], in [2], in [3], in assay [4], in assay [5] and in assay [6] was above 100 µM in each case. For the same molecule, the TGI in [7], in assay [8], in assay [9] and in assay [10] was above 100 µM in each case.
